Measurements published in ChEMBL document CHEMBL5678810.

Experiments:
[1] = target: T1, Serine/threonine-protein kinase ULK1 (Homo sapiens) (UniProt O75385); assay: Inhibition of T7 bacteriophage fused human ULK1 at 10 uM by KINOMEscan analysis relative to control
T1 sequence (whole entry): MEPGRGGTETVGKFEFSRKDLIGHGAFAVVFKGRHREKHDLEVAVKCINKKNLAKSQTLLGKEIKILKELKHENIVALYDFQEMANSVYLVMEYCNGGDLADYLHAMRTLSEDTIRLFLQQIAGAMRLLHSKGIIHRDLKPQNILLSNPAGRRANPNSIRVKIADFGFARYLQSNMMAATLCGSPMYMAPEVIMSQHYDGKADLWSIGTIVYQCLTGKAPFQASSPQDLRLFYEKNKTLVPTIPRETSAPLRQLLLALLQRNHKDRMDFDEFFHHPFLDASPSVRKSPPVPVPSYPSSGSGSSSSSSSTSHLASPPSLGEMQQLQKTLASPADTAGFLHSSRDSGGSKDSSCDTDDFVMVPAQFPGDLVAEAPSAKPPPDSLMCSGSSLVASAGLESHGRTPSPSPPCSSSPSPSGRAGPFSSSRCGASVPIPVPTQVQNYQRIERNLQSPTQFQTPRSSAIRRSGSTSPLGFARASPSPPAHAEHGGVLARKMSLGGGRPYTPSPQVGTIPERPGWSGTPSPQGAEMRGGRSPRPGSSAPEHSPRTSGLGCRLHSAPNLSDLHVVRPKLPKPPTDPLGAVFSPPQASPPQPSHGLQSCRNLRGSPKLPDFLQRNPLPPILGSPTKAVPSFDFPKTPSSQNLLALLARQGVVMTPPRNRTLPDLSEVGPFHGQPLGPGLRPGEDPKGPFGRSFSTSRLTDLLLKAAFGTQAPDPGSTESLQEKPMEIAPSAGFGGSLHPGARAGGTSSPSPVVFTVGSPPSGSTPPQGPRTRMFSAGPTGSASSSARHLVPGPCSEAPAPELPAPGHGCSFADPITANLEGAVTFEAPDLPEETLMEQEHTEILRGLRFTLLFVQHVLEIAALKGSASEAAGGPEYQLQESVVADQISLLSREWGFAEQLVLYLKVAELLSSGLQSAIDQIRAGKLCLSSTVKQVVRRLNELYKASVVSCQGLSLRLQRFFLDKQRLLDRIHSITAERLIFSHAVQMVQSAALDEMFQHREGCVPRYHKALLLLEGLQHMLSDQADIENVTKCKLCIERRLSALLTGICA

[2] = target: Microtubule-associated serine/threonine-protein kinase 1 (Homo sapiens) (UniProt Q9Y2H9); assay: Inhibition of T7 bacteriophage fused human MAST1 at 10 uM by KINOMEscan analysis relative to control; values are per cent of control
[3] = target: Tyrosine-protein kinase Yes (Homo sapiens) (UniProt P07947); assay: Inhibition of T7 bacteriophage fused human YES at 10 uM by KINOMEscan analysis relative to control
Sequence of Tyrosine-protein kinase Yes (Homo sapiens) (P07947 2-543 limits assumed): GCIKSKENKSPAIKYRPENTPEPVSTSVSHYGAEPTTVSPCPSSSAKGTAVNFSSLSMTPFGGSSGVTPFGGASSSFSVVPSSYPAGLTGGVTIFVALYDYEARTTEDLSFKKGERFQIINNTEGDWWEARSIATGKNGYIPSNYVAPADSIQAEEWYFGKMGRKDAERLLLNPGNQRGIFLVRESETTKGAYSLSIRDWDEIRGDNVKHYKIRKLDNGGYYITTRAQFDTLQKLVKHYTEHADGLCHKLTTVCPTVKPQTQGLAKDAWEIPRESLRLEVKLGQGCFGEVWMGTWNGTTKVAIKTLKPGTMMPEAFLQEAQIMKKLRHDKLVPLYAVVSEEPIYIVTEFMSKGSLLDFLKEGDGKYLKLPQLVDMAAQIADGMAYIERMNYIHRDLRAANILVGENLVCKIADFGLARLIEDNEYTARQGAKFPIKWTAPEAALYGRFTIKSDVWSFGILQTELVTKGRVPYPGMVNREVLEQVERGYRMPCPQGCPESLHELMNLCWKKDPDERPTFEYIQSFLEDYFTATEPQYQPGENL

[4] = target: Testis-specific serine/threonine-protein kinase 1 (Homo sapiens) (UniProt Q9BXA7); assay: Inhibition of T7 bacteriophage fused human TSSK1B at 10 uM by KINOMEscan analysis relative to control
Sequence of Testis-specific serine/threonine-protein kinase 1 (Homo sapiens) (Q9BXA7 whole entry, the tested form may be a part): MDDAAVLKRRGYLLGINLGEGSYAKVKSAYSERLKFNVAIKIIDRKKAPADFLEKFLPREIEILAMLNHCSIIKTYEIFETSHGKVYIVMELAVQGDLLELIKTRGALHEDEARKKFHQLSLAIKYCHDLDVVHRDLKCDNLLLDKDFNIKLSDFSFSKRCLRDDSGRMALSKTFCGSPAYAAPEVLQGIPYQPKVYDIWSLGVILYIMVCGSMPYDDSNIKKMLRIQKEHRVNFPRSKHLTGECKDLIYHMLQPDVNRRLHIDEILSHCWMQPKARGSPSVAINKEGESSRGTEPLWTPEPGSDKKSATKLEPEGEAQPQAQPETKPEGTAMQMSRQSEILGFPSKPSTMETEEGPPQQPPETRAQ

[5] = target: SRSF protein kinase 3 (Homo sapiens) (UniProt Q9UPE1); assay: Inhibition of T7 bacteriophage fused human SRPK3 at 10 uM by KINOMEscan analysis relative to control
[6] = target: TGF-beta receptor type-1 (Homo sapiens) (UniProt P36897); assay: Inhibition of T7 bacteriophage fused human TGFBR1 at 10 uM by KINOMEscan analysis relative to control
[7] = target: High affinity nerve growth factor receptor (Homo sapiens) (UniProt P04629); assay: Inhibition of T7 bacteriophage fused human TRKA at 10 uM by KINOMEscan analysis relative to control
[8] = target: BDNF/NT-3 growth factors receptor (Homo sapiens) (UniProt Q16620); assay: Inhibition of T7 bacteriophage fused human TRKB at 10 uM by KINOMEscan analysis relative to control
Sequence of BDNF/NT-3 growth factors receptor (Homo sapiens) (Q16620 32-822 limits assumed): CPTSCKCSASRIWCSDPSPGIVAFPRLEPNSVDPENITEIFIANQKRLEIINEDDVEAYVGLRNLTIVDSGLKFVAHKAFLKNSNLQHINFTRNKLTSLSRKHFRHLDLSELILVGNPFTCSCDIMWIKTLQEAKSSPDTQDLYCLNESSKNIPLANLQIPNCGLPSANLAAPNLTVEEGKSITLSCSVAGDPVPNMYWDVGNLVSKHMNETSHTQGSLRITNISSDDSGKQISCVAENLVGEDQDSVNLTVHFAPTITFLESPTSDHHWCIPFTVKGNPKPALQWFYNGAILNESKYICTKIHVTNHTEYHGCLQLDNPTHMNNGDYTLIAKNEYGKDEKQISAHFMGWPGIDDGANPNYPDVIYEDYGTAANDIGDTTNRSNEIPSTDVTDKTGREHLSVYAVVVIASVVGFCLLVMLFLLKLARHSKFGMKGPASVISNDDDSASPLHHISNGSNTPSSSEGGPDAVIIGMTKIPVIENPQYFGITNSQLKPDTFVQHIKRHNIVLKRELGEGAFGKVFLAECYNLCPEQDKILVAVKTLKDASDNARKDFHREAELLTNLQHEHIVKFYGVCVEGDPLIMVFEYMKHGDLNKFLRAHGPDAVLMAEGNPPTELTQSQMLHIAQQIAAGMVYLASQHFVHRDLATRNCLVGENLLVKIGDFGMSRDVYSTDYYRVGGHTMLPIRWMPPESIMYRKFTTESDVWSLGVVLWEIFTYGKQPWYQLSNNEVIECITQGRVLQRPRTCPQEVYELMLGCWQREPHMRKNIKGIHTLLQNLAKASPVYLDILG

[9] = target: Serine/threonine-protein kinase 33 (Homo sapiens) (UniProt Q9BYT3); assay: Inhibition of T7 bacteriophage fused human STK33 at 10 uM by KINOMEscan analysis relative to control
Sequence of Serine/threonine-protein kinase 33 (Homo sapiens) (Q9BYT3 whole entry, looked up, the tested form may be a part): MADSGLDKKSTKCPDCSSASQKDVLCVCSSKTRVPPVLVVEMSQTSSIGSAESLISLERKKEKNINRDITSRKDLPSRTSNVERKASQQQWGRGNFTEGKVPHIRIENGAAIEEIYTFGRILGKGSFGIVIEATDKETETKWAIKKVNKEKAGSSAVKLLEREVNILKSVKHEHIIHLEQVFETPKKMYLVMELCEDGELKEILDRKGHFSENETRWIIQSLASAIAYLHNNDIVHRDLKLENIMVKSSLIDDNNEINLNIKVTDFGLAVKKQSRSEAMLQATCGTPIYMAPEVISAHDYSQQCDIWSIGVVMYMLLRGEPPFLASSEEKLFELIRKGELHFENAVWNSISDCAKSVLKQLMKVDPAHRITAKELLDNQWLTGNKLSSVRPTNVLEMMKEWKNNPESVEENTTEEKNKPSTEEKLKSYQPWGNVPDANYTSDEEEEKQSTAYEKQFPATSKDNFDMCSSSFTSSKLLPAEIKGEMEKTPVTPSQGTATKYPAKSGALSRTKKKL

[10] = target: SNF-related serine/threonine-protein kinase (Homo sapiens) (UniProt Q9NRH2); assay: Inhibition of T7 bacteriophage fused human SNRK at 10 uM by KINOMEscan analysis relative to control
[11] = target: Proto-oncogene tyrosine-protein kinase Src (Homo sapiens) (UniProt P12931); assay: Inhibition of T7 bacteriophage fused human SRC at 10 uM by KINOMEscan analysis relative to control
[12] = Inhibition of T7 bacteriophage fused Plasmodium falciparum CDPK1 at 10 uM by KINOMEscan analysis relative to control; settings: condition cancer
[13] = target: SRSF protein kinase 2 (Homo sapiens) (UniProt P78362); assay: Inhibition of T7 bacteriophage fused human SRPK2 at 10 uM by KINOMEscan analysis relative to control
[14] = target: Wee1-like protein kinase (Homo sapiens) (UniProt P30291); assay: Inhibition of T7 bacteriophage fused human WEE1 at 10 uM by KINOMEscan analysis relative to control
[15] = target: SRSF protein kinase 1 (Homo sapiens) (UniProt Q96SB4); assay: Inhibition of T7 bacteriophage fused human SRPK1 at 10 uM by KINOMEscan analysis relative to control
[16] = target: NUAK family SNF1-like kinase 2 (Homo sapiens) (UniProt Q9H093); assay: Inhibition of T7 bacteriophage fused human SNARK at 10 uM by KINOMEscan analysis relative to control
Sequence of NUAK family SNF1-like kinase 2 (Homo sapiens) (Q9H093 whole entry, the tested form may be a part): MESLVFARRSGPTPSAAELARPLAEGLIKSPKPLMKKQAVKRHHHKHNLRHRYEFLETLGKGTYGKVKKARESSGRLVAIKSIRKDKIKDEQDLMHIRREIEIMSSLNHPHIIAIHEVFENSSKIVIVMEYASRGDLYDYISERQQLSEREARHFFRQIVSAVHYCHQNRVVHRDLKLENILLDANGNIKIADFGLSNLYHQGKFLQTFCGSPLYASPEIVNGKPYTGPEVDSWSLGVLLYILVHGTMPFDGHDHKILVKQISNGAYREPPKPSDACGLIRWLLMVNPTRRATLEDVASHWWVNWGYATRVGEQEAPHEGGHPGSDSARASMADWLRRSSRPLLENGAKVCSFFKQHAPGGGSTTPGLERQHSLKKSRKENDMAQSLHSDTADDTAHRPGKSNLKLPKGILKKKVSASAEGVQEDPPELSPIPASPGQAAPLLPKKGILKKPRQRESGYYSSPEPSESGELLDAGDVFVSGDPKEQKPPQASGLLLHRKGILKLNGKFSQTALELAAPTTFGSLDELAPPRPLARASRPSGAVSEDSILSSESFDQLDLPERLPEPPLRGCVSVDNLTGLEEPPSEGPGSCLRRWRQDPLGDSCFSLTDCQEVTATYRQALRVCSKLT

[17] = target: Serine/threonine-protein kinase VRK2 (Homo sapiens) (UniProt Q86Y07); assay: Inhibition of T7 bacteriophage fused human VRK2 at 10 uM by KINOMEscan analysis relative to control
[18] = target: NT-3 growth factor receptor (Homo sapiens) (UniProt Q16288); assay: Inhibition of T7 bacteriophage fused human TRKC at 10 uM by KINOMEscan analysis relative to control
Sequence of NT-3 growth factor receptor (Homo sapiens) (Q16288 32-839 limits assumed): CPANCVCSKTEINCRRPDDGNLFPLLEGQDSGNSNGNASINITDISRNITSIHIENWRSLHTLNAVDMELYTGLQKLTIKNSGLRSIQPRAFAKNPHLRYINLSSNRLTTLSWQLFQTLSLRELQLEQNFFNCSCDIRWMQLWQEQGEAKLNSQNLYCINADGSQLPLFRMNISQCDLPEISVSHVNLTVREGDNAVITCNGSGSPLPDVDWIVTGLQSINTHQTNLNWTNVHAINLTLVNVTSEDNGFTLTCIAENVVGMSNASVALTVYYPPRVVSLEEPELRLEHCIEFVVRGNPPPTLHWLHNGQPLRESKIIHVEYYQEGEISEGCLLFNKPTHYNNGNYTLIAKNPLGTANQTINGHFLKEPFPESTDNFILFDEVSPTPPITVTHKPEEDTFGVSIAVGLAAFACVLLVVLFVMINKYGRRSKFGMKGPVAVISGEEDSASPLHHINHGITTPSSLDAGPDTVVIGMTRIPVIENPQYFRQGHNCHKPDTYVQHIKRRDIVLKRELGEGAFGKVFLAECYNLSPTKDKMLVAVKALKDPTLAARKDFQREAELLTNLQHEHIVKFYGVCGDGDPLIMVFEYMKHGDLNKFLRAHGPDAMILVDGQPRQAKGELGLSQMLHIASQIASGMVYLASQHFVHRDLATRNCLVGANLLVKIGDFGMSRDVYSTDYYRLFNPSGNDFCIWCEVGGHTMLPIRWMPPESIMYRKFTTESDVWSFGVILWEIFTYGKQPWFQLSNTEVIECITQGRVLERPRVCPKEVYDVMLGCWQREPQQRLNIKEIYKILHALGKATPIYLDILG

[19] = target: Serine/threonine-protein kinase TAO3 (Homo sapiens) (UniProt Q9H2K8); assay: Inhibition of T7 bacteriophage fused human TAOK3 at 10 uM by KINOMEscan analysis relative to control
[20] = target: Peripheral plasma membrane protein CASK (Homo sapiens) (UniProt O14936); assay: Inhibition of T7 bacteriophage fused human CASK at 10 uM by KINOMEscan analysis relative to control
[21] = target: Serine/threonine-protein kinase Sgk3 (Homo sapiens) (UniProt Q96BR1); assay: Inhibition of T7 bacteriophage fused human SGK3 at 10 uM by KINOMEscan analysis relative to control
[22] = target: Serine/threonine-protein kinase 35 (Homo sapiens) (UniProt Q8TDR2); assay: Inhibition of T7 bacteriophage fused human STK35 at 10 uM by KINOMEscan analysis relative to control
[23] = target: TRAF2 and NCK-interacting protein kinase (Homo sapiens) (UniProt Q9UKE5); assay: Inhibition of T7 bacteriophage fused human TNIK at 10 uM by KINOMEscan analysis relative to control
Sequence of TRAF2 and NCK-interacting protein kinase (Homo sapiens) (Q9UKE5 whole entry, looked up, the tested form may be a part): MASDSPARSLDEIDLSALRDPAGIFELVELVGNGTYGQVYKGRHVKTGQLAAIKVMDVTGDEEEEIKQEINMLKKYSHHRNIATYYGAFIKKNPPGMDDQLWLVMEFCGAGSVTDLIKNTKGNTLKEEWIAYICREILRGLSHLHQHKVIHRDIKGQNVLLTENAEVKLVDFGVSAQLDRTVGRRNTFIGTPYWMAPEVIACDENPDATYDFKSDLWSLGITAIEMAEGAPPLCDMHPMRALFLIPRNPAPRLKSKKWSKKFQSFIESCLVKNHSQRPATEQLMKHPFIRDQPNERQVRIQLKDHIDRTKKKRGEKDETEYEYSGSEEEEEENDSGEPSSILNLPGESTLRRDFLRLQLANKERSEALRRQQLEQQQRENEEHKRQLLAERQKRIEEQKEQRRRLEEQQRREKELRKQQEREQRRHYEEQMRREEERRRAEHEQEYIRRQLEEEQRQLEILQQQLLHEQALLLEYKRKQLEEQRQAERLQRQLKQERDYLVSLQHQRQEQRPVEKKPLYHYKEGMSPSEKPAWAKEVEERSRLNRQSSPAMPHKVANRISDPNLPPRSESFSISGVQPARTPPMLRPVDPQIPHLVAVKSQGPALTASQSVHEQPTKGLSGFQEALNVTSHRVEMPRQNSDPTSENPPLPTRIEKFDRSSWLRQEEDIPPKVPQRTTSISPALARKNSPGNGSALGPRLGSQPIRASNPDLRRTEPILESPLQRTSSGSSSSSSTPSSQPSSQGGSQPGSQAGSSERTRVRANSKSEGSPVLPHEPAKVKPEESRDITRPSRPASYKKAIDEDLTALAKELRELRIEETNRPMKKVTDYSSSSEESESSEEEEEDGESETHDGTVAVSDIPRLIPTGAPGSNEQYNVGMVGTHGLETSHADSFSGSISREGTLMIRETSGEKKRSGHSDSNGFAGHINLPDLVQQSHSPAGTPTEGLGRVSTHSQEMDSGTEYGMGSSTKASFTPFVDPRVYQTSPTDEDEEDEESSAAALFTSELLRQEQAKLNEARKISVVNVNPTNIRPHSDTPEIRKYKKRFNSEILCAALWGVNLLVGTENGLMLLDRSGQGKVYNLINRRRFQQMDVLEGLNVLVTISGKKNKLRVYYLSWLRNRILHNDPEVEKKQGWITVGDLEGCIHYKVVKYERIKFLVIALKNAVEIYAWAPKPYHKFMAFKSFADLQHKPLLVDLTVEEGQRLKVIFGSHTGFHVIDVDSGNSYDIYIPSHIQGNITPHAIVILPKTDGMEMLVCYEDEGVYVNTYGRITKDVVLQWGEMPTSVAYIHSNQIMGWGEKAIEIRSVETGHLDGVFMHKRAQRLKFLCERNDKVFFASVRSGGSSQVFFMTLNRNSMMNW

SMILES	inhibition [1] [%]	residual activity [2] [%]	inhibition [3] [%]	inhibition [4] [%]	inhibition [5] [%]	inhibition [6] [%]	inhibition [7] [%]	inhibition [8] [%]	inhibition [9] [%]	inhibition [10] [%]	inhibition [11] [%]	inhibition at 10 µM [12] [%]	inhibition [13] [%]	inhibition [14] [%]	inhibition [15] [%]	inhibition [16] [%]	inhibition [17] [%]	inhibition [18] [%]	inhibition [19] [%]	inhibition [20] [%]	also measured
CCOc1cc(C(=O)N2CCC(N3CCN(C)CC3)CC2)ccc1Nc1ncc2c(n1)N(C1CCCC1)c1ccccc1C(=O)N2C	100	100	100	100	100	100	100	100	100	52	100	100	100	100	100	–	–	–	–	–	–
COc1cc(N2CCC(N3CCN(C)CC3)CC2)ccc1Nc1ncc2c(n1)N(C)c1ccccc1C(=O)N2C	80	100	100	60	72	100	69	100	10	94	100	100	100	100	94	47	99	100	24	85	inhibition [21]: 95%; inhibition [22]: 100%; inhibition [23]: 100%
COc1cc(C(=O)N2CCC(N3CCN(C)CC3)CC2)ccc1Nc1ncc2c(n1)N(C1CCCC1)c1ccccc1C(=O)N2C	100	–	–	–	–	–	–	–	–	–	–	–	–	–	–	100	100	100	100	100	inhibition [21]: 100%; inhibition [22]: 100%; inhibition [23]: 100%
